Details of data set [1]: method as in PMID 19921750. The note with it: after administration of emodin 40 mg/kg; rapidly and extensively metabolized to its glucuronide; cited from earlier work.
Data set [2] in a line: Pharmacokinetic study after oral administration of R. acetosa extract to rats. It counts as in vivo, Sprague‒Dawley rats. The note with it: oral R. acetosa extract 2 g/kg. Here is the method: The analysis was performed on an Agilent 1260 series (Agilent Technologies, Waldbronn, Germany) HPLC system. Chromatographic separation of the samples was carried out on a Kinetex Biphenyl column (100 × 3.0 mm, 2.6 μm, 110 Å, Phenomenex, Torrance, CA, USA). The mobile phase consisted of 2 mM ammonium formate (pH 6) in water (A) and 2 mM ammonium formate (pH 6) in methanol (B). The gradient program was used at a flow rate of 0.3 mL/min while maintaining the column temperature at 40 °C. The mobile phase initial composition of 25% B was maintained for 2 min. It was then increased linearly from 25% to 95% B for 0.5 min and held for 7 min. The gradient was then changed back to the initial condition for 0.5 min and kept at the initial condition for 3 min. The total analysis time was 13 min for each sample. The injection volume was 15 μL.
The mass spectrometric detection was performed on an Agilent 6460 triple-quadruple mass spectrometer (Agilent Technologies, Singapore) with an electrospray ionization source. It was operated in the negative ion detection mode because of its higher sensitivity than that in the positive ionization mode on multiple reaction monitoring (MRM). The data were acquired and processed using Mass Hunter Workstation B.06.00 software (Agilent Technologies, Singapore). The source parameters were also optimized as follows: a drying gas flow and temperature at 6 L/min and 350 °C were used, respectively; the sheath gas flow and temperature were maintained at 12 L/min and 350 °C, respectively; the nebulizing gas (N2) pressure was set at 25 psi; and the capillary and nozzle voltages were set at 3500 V and 500 V, respectively.
To 20 μL aliquot of the rat plasma samples, 60 μL of 5 ng/mL IS in methanol was added. The mixture was vortexed for 30 s and kept at 4 °C for 30 min. The mixture was centrifuged at 10,000× g for 10 min. The supernatant was transferred to an HPLC vial, and 15 μL of the processed sample was injected onto the LC-MS/MS system.
Male Sprague‒Dawley rats (8-week-old, weighing 250 ± 10 g) were obtained from Koatech (Pyeongtaek, Korea). They were housed and acclimated in the Animal Laboratory, Gyeongsang National University, under controlled temperature and humidity and regular 12 h light cycle, freely accessible to food and water for 7 days before the experiment. The rats were cannulated into the carotid artery and allowed to recover for one day. Before the pharmacokinetic study, all rats were fasted for 12 h with free access to water. R. acetosa extract suspended in a solution (ethanol:polysorbate 80:water = 1:2:7, v/v/v) was orally administered to the three rats at a dose of 2 g/kg. The calculated doses of compounds based on the contents in the extract were 18.8, 25.8, 13.6, 15.4, 3.4, and 8.2 mg/kg for E, EG, C, CG, P, and PG, respectively. Blood samples (100 µL) were collected via the cannulated carotid vessel at 0, 15, 30, 45 min, 1, 2, 3, 4, 6, 8, 12, and 24 h after oral administration. To collect plasma, the blood samples were immediately centrifuged at 10,000× g for 5 min. All plasma samples were stored at −80 °C until analysis. All experimental procedures of the animal study were approved (GNU-130618-R0038) by the Animal Care and Use Committee of Gyeongsang National University, Korea.

Details of data set [3]: method as in doi:10.1039/C5RA27273D. The following applies: hyperlipidemic hamsters after administration of rhubarb; cited from earlier work.
Data set [4] in a line: Stability of analytes in stock solution. The data set is classed as physicochemical. The note with it: stock solutions stored at room temperature for 4 h, n = 3. The protocol: The primary stock solutions of E, EG, C, CG, P, PG, and IS were prepared in dimethyl sulfoxide at a concentration of 1 mg/mL and stored at −80 °C. The mixture stock solutions to obtain the standard solutions were serially diluted in methanol. The IS stock solution of 5 ng/mL was prepared in methanol. The calibration standards were prepared by spiking 10 μL of above standard solutions into 90 μL of blank rat plasma to yield concentration ranges of 1–300 ng/mL for E, 20–300 ng/mL for P and C, 1–150 ng/mL for EG, 10–150 ng/mL for CG and PG. Twenty microliters of aliquots were prepared and stored at −80 °C until analysis.
(§1) The stability of the analytes in rat plasma was evaluated by analyzing triplicates of three QC levels at room temperature for 4 h (short-term stability), −80 °C for one month (long-term stability), three freeze-thaw cycles from −80 °C to room temperature (freeze and thaw stability), and 4 °C for 24 h (processed sample stability). The stability of analytes in stock solution was also evaluated. The peak areas obtained from freshly prepared stock solutions were compared with stock solutions stored for 4 h at room temperature.

Data set [5] in a line: Stability of the analytes in rat plasma (method validation). It counts as in vitro ADME. The following applies: n = 3; for Processed Sample Stability, Accuracy: processed rat plasma sample, 4 °C 24 h; for Short Term Stability, Accuracy / Freeze and Thaw Stability, Accuracy / Long Term Stability, Accuracy: rat plasma; for Short Term Stability, Accuracy: room temperature 4 h; for Freeze and Thaw Stability, Accuracy: three freeze-thaw cycles −80 °C to room temperature; for Long Term Stability, Accuracy: −80 °C one month. Here is the method: as §1

[6] abbreviates: high QC (P, E, C 300; PG, EG, CG 150 ng/mL).
[7] abbreviates: low QC (P, C 60; E, EG 3; PG, CG 30 ng/mL).
[8] abbreviates: middle QC (P, E, C 150; PG, EG, CG 75 ng/mL).

The structures appear in SMILES notation. Read-outs that look alike come from different tables or passages of the source.

The values below come from PMC6161010, “A Simple and Sensitive Liquid Chromatography with Tandem Mass Spectrometric Method for the Simultaneous Determination of Anthraquinone Glycosides and Their Aglycones in Rat Plasma: Application to a Pharmacokinetic Study of Rumex acetosa Extract” (Pharmaceutics, 2018).

For `Cc1cc(O)c2c(c1)C(=O)c1cc(O)cc(O)c1C2=O` [E, emodin], the “detection of the parent form (in words)” value in data set [1] is listed as “almost undetectable”. In data set [2] (male, Sprague-Dawley, plasma, rat, n = 3, mean ± SD), this compound had a mean residence time (MRT) of 7.7 ± 3 h. Further, in data set [2] (male, Sprague-Dawley, plasma, rat, read-out: Median Tmax (converted)), the Tmax was 0.25 h. In data set [2] (male, Sprague-Dawley, rat plasma, n = 3, mean ± SD), this compound registered a Cmax of 124 ± 41.7 ng/mL. This compound returned an AUC(0-t) in data set [2] (male, Sprague-Dawley, rat plasma, n = 3, mean ± SD, last measured time points for C, E, CG, PG 6, 24, 8, 6 h) of 1160 ± 336 ng·h/mL. In addition, in data set [2] (rat), the “first time detected in plasma of every rat (first sampling time)” value was determined as 15 min and the “time until which the analyte could be detected in plasma” value was found to be 24 h. In data set [2] (rat, n = 3, median (range)), the Tmax is 0.25 (0.25–0.75) h. The “time until which the analyte could be detected” value in data set [3] is on record as 36 h. Further, in data set [4], the “mean concentration in stock solution compared with fresh stock solutions” value came to 94.8%. For the same compound, in data set [5] (setting [6]), the “Processed Sample Stability, Accuracy” value is listed as 104.6%; the “Short Term Stability, Accuracy” value was 101.8%; the “Freeze and Thaw Stability, Accuracy” value is 102.0%; the “Long Term Stability, Accuracy” value worked out at 107.7%. Besides, in data set [5] (setting [7]), the “Processed Sample Stability, Accuracy” value came to 108.2%; the “Short Term Stability, Accuracy” value is listed as 103.2%; the “Freeze and Thaw Stability, Accuracy” value turned out to be 107.5%; the “Long Term Stability, Accuracy” value was 106.8%. Besides, in data set [5] (setting [8]), the “Processed Sample Stability, Accuracy” value is recorded as 108.0%; the “Short Term Stability, Accuracy” value came to 100.7%; the “Freeze and Thaw Stability, Accuracy” value is listed as 104.5%; the “Long Term Stability, Accuracy” value is given as 107.8%.
`Cc1cc(O)c2c(c1)C(=O)c1cc(O)cc(O[C@@H]3O[C@H](CO)[C@@H](O)[C@H](O)[C@H]3O)c1C2=O` [EG, emodin-8-O-β-D-glucoside]: in data set [2] (rat), the “plasma concentrations (in words)” value is reported as “not high enough to determine the pharmacokinetic parameters”. In addition, the “detection in plasma (in words)” value in data set [3] is on record as “not detected”. Moreover, the “mean concentration in stock solution compared with fresh stock solutions” value in data set [4] stood at 100.4%. For the same compound, in data set [5] (setting [6]), the “Processed Sample Stability, Accuracy” value was determined as 100.3%; the “Short Term Stability, Accuracy” value is 98.9%; the “Freeze and Thaw Stability, Accuracy” value worked out at 100.9%; the “Long Term Stability, Accuracy” value amounted to 102.8%. For the same compound, in data set [5] (setting [7]), the “Processed Sample Stability, Accuracy” value is 91.5%; the “Short Term Stability, Accuracy” value was determined as 99.8%; the “Freeze and Thaw Stability, Accuracy” value is reported as 100.4%; the “Long Term Stability, Accuracy” value came to 102.9%. In data set [5] (setting [8]), the “Processed Sample Stability, Accuracy” value came out at 107.9%; the “Short Term Stability, Accuracy” value was 108.5%; the “Freeze and Thaw Stability, Accuracy” value is reported as 112.3%; the “Long Term Stability, Accuracy” value stood at 107.9%.
